The results in this text go back to patent US12465588B2, “Indole carboxamide derivative and pharmaceutical composition containing same” (KUKJE PHARMA CO., LTD., priority 2019, dated 2025).

Each structure is given as a SMILES string. pIC50: −log10 of the molar value. Marks after values point to notes of the source that are not given here.

The test system of experiment [1] is A549 human lung cancer cells. Nature of the experiment: Measurement of PGE2 in IL-1β-treated A549 human lung cancer cells. It counts as cell-based. As to conditions: PGE2 production, A549 cell, IL-1β 1 ng/mL, 48 hours. Here is the method:
Samples at various concentrations were added at 24 hours after A549 human lung cancer cells were seeded. After 1 hour, IL-1β of 1 ng/mL was added. The cells were cultured for 48 hours and then the culture supernatant was collected. PGE2 of the collected supernatant was measured according to the manufacturer's instructions using a PGE2 EIA kit.

The subject of experiment [2] is acetic acid-induced abdominal contraction mouse model. Nature of the experiment: Anti-pain efficacy test, acetic acid-induced abdominal contraction mouse model. It counts as in vivo. As to conditions: oral, 1 hour before 0.7% acetic acid i.p.; writhing counted for 10 minutes (FIG. 5). Here is the method: In order to evaluate the anti-pain efficacy of the compound according to the present invention in abdominal contraction mice, an experiment was conducted as follows.
Specifically, male ICR mice weighing about 20 to 25 g from Orient Bio Co., Ltd. (Gyeonggi-do, Korea) were acclimated in a laboratory for 7 days and provided chow and water ad libitum. Temperature (20±2° C.), humidity (40±60%) and light/dark cycle (12 hours) were controlled automatically.
Based on 10 mice per group, the control group was orally administered with an excipient (200 μL), and the positive control group was orally administered with celecoxib at 25 mg/kg. Compound 9 of the present invention was dissolved in an excipient (10% NMP (N-methyl-2-pyrrolidone), 10% ethanol, 80% polyethylene glycol 400) and administered orally at 10 and 50 mg/kg to each mouse. One hour after drug administration, 0.7% acetic acid was intraperitoneally injected at […] to induce pain. The number of writhing was measured for 10 minutes from 10 minutes after the acetic acid administration.
In this experiment, the less the number of writhing for 10 minutes, the stronger the anti-pain efficacy of the drug was evaluated. The statistical significance compared to the control group was represented as **P<0.01, *P<0.05 compared to the control group.

The subject of experiment [3] is PGE2, IL-1β, and TNF-α in blood. Nature of the experiment: Inflammatory factor evaluation (ELISA) in blood of MIA osteoarthritis guinea pigs. As to conditions: for IL-1β (ELISA analysis) / PGE2 (ELISA analysis) / TNF-α (ELISA analysis): blood, after 4 weeks. Type of experiment: in vivo, guinea pig. As for the experimental part: (§1) Specifically, male guinea pigs weighing about 500 g±20% from Coretech Co., Ltd. (Gyeonggi-do, Korea) were acclimated in a laboratory for 8 days, and provided chow and water ad libitum. Temperature (23±3° C.), humidity (55±15%) and light/dark cycle (12 hours, 08:00˜20:00) were controlled automatically.
(§2) Each group consisted of 10 guinea pigs. Guinea pigs were anesthetized with Zoletil 50 (VIRBAC, France, 5 mg/kg) and xylazine (Rompun®, Bayer AG, Germany, 2.5 mg/kg) and depilated at the area around the right knee with Clipper. Using a C-arm (ARCADIS Varic, SIEMENS Co.), it was confirmed that a syringe equipped with a 26 gauge needle was located in the joint cavity. 50 μL of MIA at a concentration of 60 mg/mL was administered into the joint cavity. One week after MIA administration, Compound 9 of the present invention was added to excipients (DMSO (10% by weight), Tween 80 (30% by weight), HMPC (same amount as the drug)), dissolved in water so that the total amount was 100% by weight, and orally administered to the prepared experimental animals at 10 mg/kg and 25 mg/kg, respectively. In the positive control group, GRC27864 was orally administered at 12.5 mg/kg using the same excipient, and only the excipient was orally administered to the control group. The drug was administered for 4 weeks.
(§3) The hind limb incapacitance test was performed for the behavioral evaluation weekly for 4 weeks and the inflammatory factor evaluation was performed by measuring PGE2, IL-1β, and TNF-α in blood after 4 weeks.
The concentrations of PGE2, IL-1β, and TNF-α in blood were measured using commercially available ELISA kit after 4 weeks. The results are shown in Table 4 below and FIGS. 2 to 4. ***, ** and * represent statistical significance compared to the control group, and are P<0.001, P<0.01, and P<0.05 compared to the control group.
On the technique in general: An ELISA detects its analyte on a solid surface through an enzyme-linked reagent.

For experiment [4], the system named is guinea pig model of osteoarthritis induced by MIA (monosodium iodoacetate). Nature of the experiment: Hind limb incapacitance test in guinea pig model of osteoarthritis induced by MIA. It counts as in vivo. As for the experimental part:
An experiment was conducted as follows in order to evaluate the efficacy of the compound according to the present invention for osteoarthritis-induced guinea pigs.
as §1, §2, §3
The hind limb weight-bearing ratios were obtained by setting up the animals at an inclination of 60 degrees in a plastic room using an incapacitance meter tester, measuring the intensity applied to each hind limb over 10 seconds, and calculating an average. Weight-bearing ratios are 50% for normal cases and up to early 30% for the cases in which a disease is induced.

Take `CC(C)C(=O)NCc1ccc(Cl)c(C(=O)Nc2ccc3c(c2)cc(C(=O)Nc2ccc(OC(F)(F)F)cc2)n3C)c1` [Compound 9, 5-(2-chloro-5-(isobutyramidomethyl)benzamido)-1-methyl-N-(4-(trifluoromethoxy)phenyl)-1H-indole-2-carboxamide]: the pIC50 in experiment [1] is 8.15. Further, the “number of writhing compared to the control group” value in experiment [2] is on record as “significantly lower number of writhing compared to the control group”. In addition, the “inhibitory ability on inflammatory factors, in words” value in experiment [3] (25 mpk, compared with GRC27864 group) is “inhibited the inflammatory factor more than the group administered with the drug GRC27864”. Moreover, the figures for the “IL-1β (ELISA analysis)” value in experiment [3] (10 mpk oral) and in experiment [3] (25 mpk oral) were 41.547 ± 10.683 and 34.345 ± 11.786, respectively. Further, the figures for the “PGE2 (ELISA analysis)” value in experiment [3] (10 mpk oral) and in experiment [3] (25 mpk oral) were 9331.6 ± 2215.6 and 5812.4 ± 1758.8***, respectively. In addition, the “TNF-α (ELISA analysis)” value is recorded as 119.715 ± 22.898 in experiment [3] (10 mpk oral) and 94.833 ± 22.453** in experiment [3] (25 mpk oral). The Weight-bearing ratio in experiment [4] (10 mpk oral, day 0) is on record as 42.05 ± 2.99%; in experiment [4] (10 mpk oral, day 7) it was 39.64 ± 5.30%; in experiment [4] (10 mpk oral, day 14), 39.53 ± 6.41%; in experiment [4] (10 mpk oral, day 21) it was 40.16 ± 2.92%; in experiment [4] (10 mpk oral, day 28), 38.42 ± 1.52%; in experiment [4] (25 mpk oral, day 0) it was 39.15 ± 4.53%. Further, the Weight-bearing ratio in experiment [4] (25 mpk oral, day 7) came out at 42.39 ± 3.69%; in experiment [4] (25 mpk oral, day 14) it was 40.65 ± 3.61%; in experiment [4] (25 mpk oral, day 21), 39.19 ± 3.15%; in experiment [4] (25 mpk oral, day 28) it was 39.28 ± 4.14%. In experiment [4] (over 4 weeks of oral administration after MIA), the “weight-bearing ratios, course in words” value is on record as “did not worsen after MIA administration but were maintained”.
Take `Cc1ccc(-c2cc(C(F)(F)F)nn2-c2ccc(S(N)(=O)=O)cc2)cc1` [celecoxib, reference compound]: the “number of writhing compared to the control group” value in experiment [2] is listed as “significantly lower number of writhing compared to the control group”.

The term pIC50 denotes −log10 of the IC50, conventionally taken in molar units.
